Laboratory results reported in the supplement of paper PMC10307832.

Columns and labels:
Assay in all cases: relative viability (nuclei count vs DMSO), 5 days (fraction); higher = more cells survive
[1] = test system: UMC-11
Summary of the method: (§1)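 Lung cancer cell lines were pin-tool dosed in 1536-well plates on the day after seeding, with either a lone drug or a fixed anchor-drug dose plus five library-drug doses (not always all listed) in √10 steps. Nuclei were counted on 4× images after 5 days. Relative viability is the ratio of treated-well to vehicle-well nuclei counts, with each value a median of duplicate plates.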

[2] = test system: NCI-H1993
Summary of the method: as §1

[3] = test system: NCI-H1648
Summary of the method: as §1

[4] = test system: NCI-H23
Summary of the method: as §1

[5] = test system: NCI-H1355
Summary of the method: as §1

[6] = test system: NCI-H322M
Summary of the method: as §1

[7] = test system: LCLC-97TM1
Summary of the method: as §1

[8] = test system: NCI-H596
Summary of the method: as §1

`O=c1cc(-c2cccc3c2Sc2ccccc2S3)oc(N2CCOCC2)c1` + CC(=O)Nc1cccc(-n2c(=O)n(C3CC3)c(=O)c3c(Nc4ccc(I)cc4F)n(C)c(=O)c(C)c32)c1 [Trametinib] (partner 0.02 µM) gave a relative viability ([1]; first compound 0.08 µM) of 0.719, a relative viability ([1]; first compound 0.253 µM) of 0.827 and a relative viability ([1]; first compound 0.8 µM) of 0.78. The relative viability ([1]; first compound 2.53 µM) was 0.638, the relative viability ([1]; first compound 8 µM) was 1.03 and the relative viability ([2]; first compound 0.08 µM) was 0.462. For the same compound, the relative viability ([2]; first compound 0.253 µM) was 0.64, the relative viability ([2]; first compound 0.8 µM) was 0.46 and the relative viability ([2]; first compound 2.53 µM) was 0.467. It also gave a relative viability ([2]; first compound 8 µM) of 0.544, a relative viability ([3]; first compound 0.253 µM) of 0.515 and a relative viability ([3]; first compound 0.8 µM) of 0.427. The relative viability ([3]; first compound 8 µM) was 0.389, the relative viability ([4]; first compound 0.08 µM) was 0.334 and the relative viability ([4]; first compound 0.253 µM) was 0.418. The relative viability ([4]; first compound 0.8 µM) was 0.349, the relative viability ([4]; first compound 2.53 µM) was 0.313 and the relative viability ([4]; first compound 8 µM) was 0.317. It also gave a relative viability ([5]; first compound 0.08 µM) of 0.524, a relative viability ([5]; first compound 0.253 µM) of 0.468 and a relative viability ([5]; first compound 0.8 µM) of 0.348. The relative viability ([5]; first compound 2.53 µM) was 0.409, the relative viability ([5]; first compound 8 µM) was 0.352 and the relative viability ([6]; first compound 0.08 µM) was 0.52. The relative viability ([6]; first compound 0.253 µM) was 0.558, the relative viability ([6]; first compound 0.8 µM) was 0.591 and the relative viability ([6]; first compound 2.53 µM) was 0.443. For the same compound, the relative viability ([6]; first compound 8 µM) was 0.529, the relative viability ([7]; first compound 0.08 µM) was 0.204 and the relative viability ([7]; first compound 0.253 µM) was 0.196. For the same compound, the relative viability ([7]; first compound 0.8 µM) was 0.175, the relative viability ([7]; first compound 2.53 µM) was 0.186 and the relative viability ([7]; first compound 8 µM) was 0.181. The relative viability ([8]; first compound 0.08 µM) was 0.819, the relative viability ([8]; first compound 0.253 µM) was 0.925 and the relative viability ([8]; first compound 0.8 µM) was 0.823. The relative viability ([8]; first compound 2.53 µM) was 0.934 and the relative viability ([8]; first compound 8 µM) was 0.801.
Compound `O=c1cc(N2CCOCC2)oc2c(-c3cccc4c3sc3ccccc34)cccc12` + CC(=O)c1c(C)c2cnc(Nc3ccc(N4CCNCC4)cn3)nc2n(C2CCCC2)c1=O [Palbociclib] (partner 0.5 µM) has a relative viability ([1]; first compound 0.01 µM) of 0.309, a relative viability ([1]; first compound 0.03162 µM) of 0.294 and a relative viability ([1]; first compound 0.1 µM) of 0.32. For the same compound, the relative viability ([1]; first compound 0.3162 µM) was 0.347, the relative viability ([1]; first compound 1 µM) was 0.324 and the relative viability ([2]; first compound 0.01 µM) was 0.738. The relative viability ([2]; first compound 0.03162 µM) was 0.6, the relative viability ([2]; first compound 0.1 µM) was 0.658 and the relative viability ([2]; first compound 0.3162 µM) was 0.64. The relative viability ([2]; first compound 1 µM) was 0.545, the relative viability ([3]; first compound 0.03162 µM) was 0.261 and the relative viability ([3]; first compound 0.1 µM) was 0.273. For the same compound, the relative viability ([3]; first compound 0.3162 µM) was 0.284, the relative viability ([3]; first compound 1 µM) was 0.292 and the relative viability ([4]; first compound 0.01 µM) was 0.464. The relative viability ([4]; first compound 0.03162 µM) was 0.524, the relative viability ([4]; first compound 0.3162 µM) was 0.485 and the relative viability ([4]; first compound 1 µM) was 0.473. For the same compound, the relative viability ([5]; first compound 0.01 µM) was 0.424, the relative viability ([5]; first compound 0.03162 µM) was 0.403 and the relative viability ([5]; first compound 0.1 µM) was 0.412. For the same compound, the relative viability ([5]; first compound 0.3162 µM) was 0.39, the relative viability ([5]; first compound 1 µM) was 0.392 and the relative viability ([6]; first compound 0.01 µM) was 0.484. It also gave a relative viability ([6]; first compound 0.03162 µM) of 0.472, a relative viability ([6]; first compound 0.3162 µM) of 0.462 and a relative viability ([6]; first compound 1 µM) of 0.45. The relative viability ([7]; first compound 0.01 µM) was 0.218, the relative viability ([7]; first compound 0.03162 µM) was 0.194 and the relative viability ([7]; first compound 0.1 µM) was 0.241. The relative viability ([7]; first compound 0.3162 µM) was 0.21 and the relative viability ([7]; first compound 1 µM) was 0.218.
Work on `CCN(CC)CCCCNc1ncc2cc(-c3cc(OC)cc(OC)c3)c(NC(=O)NC(C)(C)C)nc2n1` + CC(=O)c1c(C)c2cnc(Nc3ccc(N4CCNCC4)cn3)nc2n(C2CCCC2)c1=O [Palbociclib] (partner 0.5 µM) yielded a relative viability ([1]; first compound 0.01 µM) of 0.338, a relative viability ([1]; first compound 0.03162 µM) of 0.305 and a relative viability ([1]; first compound 0.1 µM) of 0.351. It also gave a relative viability ([1]; first compound 0.3162 µM) of 0.313, a relative viability ([1]; first compound 1 µM) of 0.343 and a relative viability ([2]; first compound 0.01 µM) of 0.368. It also gave a relative viability ([2]; first compound 0.03162 µM) of 0.763, a relative viability ([2]; first compound 0.1 µM) of 0.791 and a relative viability ([2]; first compound 0.3162 µM) of 0.661. For the same compound, the relative viability ([2]; first compound 1 µM) was 0.738, the relative viability ([3]; first compound 0.01 µM) was 0.288 and the relative viability ([3]; first compound 0.03162 µM) was 0.292. For the same compound, the relative viability ([3]; first compound 0.1 µM) was 0.237, the relative viability ([3]; first compound 0.3162 µM) was 0.274 and the relative viability ([3]; first compound 1 µM) was 0.238. For the same compound, the relative viability ([4]; first compound 0.01 µM) was 0.534, the relative viability ([4]; first compound 0.03162 µM) was 0.451 and the relative viability ([4]; first compound 0.1 µM) was 0.598. The relative viability ([4]; first compound 0.3162 µM) was 0.547, the relative viability ([4]; first compound 1 µM) was 0.466 and the relative viability ([5]; first compound 0.01 µM) was 0.378. It also gave a relative viability ([5]; first compound 0.03162 µM) of 0.402, a relative viability ([5]; first compound 0.1 µM) of 0.465 and a relative viability ([5]; first compound 0.3162 µM) of 0.376. The relative viability ([5]; first compound 1 µM) was 0.364, the relative viability ([6]; first compound 0.01 µM) was 0.516 and the relative viability ([6]; first compound 0.03162 µM) was 0.45. For the same compound, the relative viability ([6]; first compound 0.1 µM) was 0.508, the relative viability ([6]; first compound 0.3162 µM) was 0.504 and the relative viability ([6]; first compound 1 µM) was 0.474. The relative viability ([7]; first compound 0.01 µM) was 0.205, the relative viability ([7]; first compound 0.03162 µM) was 0.203 and the relative viability ([7]; first compound 0.1 µM) was 0.297. For the same compound, the relative viability ([7]; first compound 0.3162 µM) was 0.238 and the relative viability ([7]; first compound 1 µM) was 0.218.
